In patent US6441021B1, “Sulfonated amino acid derivatives and metalloproteinase inhibitors containing the same” (Shionogi & Co., Ltd., priority 1996, dated 2002):
pIC50: −log10 of the molar value.

Molecular target: T1, MMP-9 (92 kDa, gelatinase B; type IV collagenase) (Homo sapiens, UniProt P14780)
T1 construct: endogenous in cells; enzyme purified from the conditioned medium
Experiment: Assay of type IV collagenase inhibitors: activated MMP-9 with type IV collagenase activity kit substrate, fluorescent intensity
Format: biochemical
Conditions: not given
Procedure: (1) Isolation and Purification of MMP-9 (92 kDa, Gelatinase B)
Type IV collagenase (MMP-9) was purified according to the methods descrived in the following literature.
Subsequently, activated MMP-9 was obtained by treating the pro-MMP-9 with trypsin.
(2) Assay Methods of Type IV Collagenase Inhibitors
Collagenase assay was performed using the activated MMP-9 described above and the substrate supplied in the type IV collagenase activity kit (YAGAI, inc.), according to the manufacturer's protocol. The following 4 assays are performed per compound (inhibitor).
(A) substrate (type IV collagenase), enzyme (MMP-9), inhibitor
(B) substrate (type IV collagenase), inhibitor
(C) substrate (type IV collagenase), enzyme (MMP-9)
(D) substrate (type IV collagenase)
According to the manufacturer's protocol, fluorescent intensity was measured and percent inhibition was determined by the following equation.
Inhibition (%)={1−(A−B)/(C−D)}×100

T1 sequence (P14780 107-707 limits assumed): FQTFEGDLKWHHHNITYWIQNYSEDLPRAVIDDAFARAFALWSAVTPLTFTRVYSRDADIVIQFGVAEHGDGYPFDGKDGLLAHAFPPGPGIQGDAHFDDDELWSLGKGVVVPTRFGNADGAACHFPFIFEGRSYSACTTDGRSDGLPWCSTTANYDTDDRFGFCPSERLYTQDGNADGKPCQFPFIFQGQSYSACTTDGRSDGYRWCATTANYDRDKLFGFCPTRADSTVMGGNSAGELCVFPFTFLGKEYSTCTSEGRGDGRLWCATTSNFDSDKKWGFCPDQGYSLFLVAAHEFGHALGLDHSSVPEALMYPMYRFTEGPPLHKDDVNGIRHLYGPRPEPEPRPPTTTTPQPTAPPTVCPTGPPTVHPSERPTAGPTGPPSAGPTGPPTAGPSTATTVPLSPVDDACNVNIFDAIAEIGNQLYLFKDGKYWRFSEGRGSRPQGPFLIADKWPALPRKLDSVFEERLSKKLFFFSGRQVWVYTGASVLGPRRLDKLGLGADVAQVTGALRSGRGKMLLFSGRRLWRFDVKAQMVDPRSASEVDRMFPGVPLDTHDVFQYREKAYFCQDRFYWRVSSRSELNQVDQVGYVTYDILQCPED

| Compound | pIC50 |
| --- | --- |
| COc1ccc(C(=O)Nc2ccc(S(=O)(=O)N[C@@H](C(=O)O)C(C)C)cc2)cc1 [Example 200] | 6.76 |
| CC(C)[C@@H](NS(=O)(=O)c1ccc(-c2nnn(-c3ccc(F)cc3)n2)cc1)C(=O)O [Example 243] | 7.28 |
| CC(C)[C@H](C(=O)O)N(C)S(=O)(=O)c1ccc(Oc2ccccc2)cc1 [Example 252] | 6.62 |
| CC(C)[C@@H](NS(=O)(=O)c1ccc(NC(=O)c2ccccc2)cc1)C(=O)O [Example 199] | 5.69 |
| Cc1ccc(-n2nnc(-c3ccc(S(=O)(=O)N[C@@H](C(=O)O)C(C)C)cc3)n2)cc1 [Example 242] | 7.62 |
| O=Cn1cc(C[C@@H](NS(=O)(=O)c2ccc(-c3nnn(-c4ccccc4)n3)cc2)C(=O)O)c2ccccc21 [Example 219] | 6.24 |
| CC(C)[C@@H](NS(=O)(=O)c1ccc(NC(=O)c2ccc([N+](=O)[O-])cc2)cc1)C(=O)O [Example 201] | 6.60 |
| CSc1ccc(-n2nnc(-c3ccc(S(=O)(=O)N[C@H](Cc4ccccc4)C(=O)O)cc3)n2)cc1 [Example 246] | 7.97 |
| COc1ccc(C(=O)Nc2ccc(S(=O)(=O)N[C@@H](C(=O)O)C(C)(C)C)cc2)cc1 [Example 203] | 6.76 |
| O=C(Nc1ccc(S(=O)(=O)N[C@H](Cc2c[nH]c3ccccc23)C(=O)O)cc1)c1ccc(F)cc1 [Example 185] | 7.37 |
| CC(C)[C@@H](NS(=O)(=O)c1ccc(-c2nnn(-c3ccc(Br)cc3)n2)cc1)C(=O)O [Example 225] | 7.91 |
| Cc1ccc(-n2nnc(-c3ccc(S(=O)(=O)N[C@H](Cc4c[nH]c5ccccc45)C(=O)O)cc3)n2)cc1 [Example 241] | 7.88 |
| O=C(O)[C@@H](Cc1ccccc1)NS(=O)(=O)c1ccc(-c2nnn(-c3ccc(Br)cc3)n2)cc1 [Example 228] | 6.97 |
| CSc1ccc(-n2nnc(-c3ccc(S(=O)(=O)N[C@H](Cc4c[nH]c5ccccc45)C(=O)O)cc3)n2)cc1 [Example 247] | 8.46 |
| COc1ccc(C(=O)Nc2ccc(S(=O)(=O)N[C@H](Cc3c[nH]c4ccccc34)C(=O)O)cc2)cc1 [Example 178] | 7.60 |
| CSc1ccc(C(=O)Nc2ccc(S(=O)(=O)N[C@H](Cc3c[nH]c4ccccc34)C(=O)O)cc2)cc1 [Example 184] | 8.49 |
| O=C(O)[C@@H](Cc1c[nH]c2ccccc12)NS(=O)(=O)c1ccc(-c2nnn(-c3ccccc3)n2)cc1 [Example 210] | 7.62 |
| O=C(O)C(Cc1cccc2ccccc12)NS(=O)(=O)c1ccc(-c2nnn(-c3ccccc3)n2)cc1 (centres unmarked) [Example 218] | 6.13 |
| O=C(O)[C@@H](Cc1ccccc1)NS(=O)(=O)c1ccc(-c2nnn(-c3ccc(F)cc3)n2)cc1 [Example 231] | 6.71 |
| O=C(O)[C@@H](Cc1ccccc1)NS(=O)(=O)c1ccc(-c2nnn(-c3ccc(Cl)cc3)n2)cc1 [Example 232] | 6.84 |
| CCC(C)[C@@H](NS(=O)(=O)c1ccc(-c2nnn(-c3ccc(OC)cc3)n2)cc1)C(=O)O (some centres unmarked) [Example 222] | 7.11 |

Same assay, conditions: activated MMP-9, type IV collagenase activity kit substrate, fluorescent intensity; concentration at which percent inhibition reaches 50%

| Compound | pIC50 |
| --- | --- |
| Cc1ccc2[nH]cc(CC(NS(=O)(=O)c3ccc(-c4ccccc4)cc3)C(=O)NO)c2c1 (racemic) [Example 1b-1-17] | 7.69 |
| O=C(NO)[C@@H](Cc1c[nH]c2ccccc12)NS(=O)(=O)c1ccc(-c2ccccc2)cc1 [Example 1b-1-33] | 8.30 |
| O=C(O)[C@@H](Cc1ccccc1)NS(=O)(=O)c1ccc(-c2ccccc2)cc1 [Example 1a-1-1] | 6.62 |
| O=C(NO)[C@@H](Cc1ccccc1)NS(=O)(=O)c1ccc(C(F)(F)F)cc1 [Example 1b-1-10] | 5.68 |
| CC(C)[C@@H](NS(=O)(=O)c1ccc(-c2ccc(-c3ccccc3)cc2)cc1)C(=O)O [Example 1a-1-45] | 7.40 |
| CN(C)c1cccc2c(S(=O)(=O)N[C@H](Cc3ccccc3)C(=O)NO)cccc12 [Example 1b-1-11] | 5.77 |
| O=C(O)[C@@H](Cc1c[nH]c2ccccc12)NS(=O)(=O)c1ccc(Oc2ccccc2)cc1 [Example 1a-1-61] | 6.61 |
| CC(C)[C@@H](NS(=O)(=O)c1ccc(-c2ccc(C(F)(F)F)cc2)cc1)C(=O)O [Example 1a-1-46] | 5.95 |
| Cc1ccc2[nH]cc(CC(NS(=O)(=O)c3ccc(Oc4ccccc4)cc3)C(=O)O)c2c1 (racemic) [Example 1a-1-65] | 6.54 |
| O=C(O)[C@@H](Cc1ccccc1)NS(=O)(=O)c1ccc(Oc2ccccc2)cc1 [Example 1a-1-60] | 5.88 |
| O=C(NO)[C@@H](Cc1ccccc1)NS(=O)(=O)c1ccc(-c2ccccc2)cc1 [Example 1b-1-1] | 7.52 |
| CSc1ccc(-c2ccc(S(=O)(=O)N[C@@H](C(=O)O)C(C)C)cc2)cc1 [Example 1a-1-55] | 7.40 |
| O=C(NO)[C@@H](Cc1ccccc1)NS(=O)(=O)c1ccc(O)cc1 [Example 1b-1-24] | 6.70 |
| O=C(O)[C@@H](Cc1c[nH]c2ccccc12)NS(=O)(=O)c1ccc(-c2ccc(F)cc2)cc1 [Example 1a-1-41] | 6.51 |
| CSc1ccc(-c2ccc(S(=O)(=O)N[C@H](Cc3ccccc3)C(=O)O)cc2)cc1 [Example 1a-1-54] | 7.12 |
| O=C(NO)C(Cc1cscn1)NS(=O)(=O)c1ccc(-c2ccccc2)cc1 (racemic) [Example 1b-1-2] | 7.40 |
| O=C(O)C(Cc1c[nH]c2ccc(F)cc12)NS(=O)(=O)c1ccc(-c2ccccc2)cc1 (racemic) [Example 1a-1-18] | 6.30 |

Same assay, conditions: inhibition of type IV collagenase (MMP-9), concentration at which percent inhibition reaches 50%

| Compound | pIC50 |
| --- | --- |
| O=C(O)[C@@H](Cc1c[nH]c2ccccc12)NS(=O)(=O)c1ccc(-c2nc3ccccc3s2)cc1 [Example 1a-1-83] | 5.75 |
| O=C(Nc1ccc(S(=O)(=O)N[C@H](Cc2ccccc2)C(=O)O)cc1)c1ccncc1 [Example 205] | 5.35 |
| Cc1ccc(-n2nnc(-c3ccc(S(=O)(=O)N[C@H](Cc4ccccc4)C(=O)O)cc3)n2)cc1 [Example 233] | 7.06 |
| CN(C)c1ccc(N=Nc2ccc(S(=O)(=O)N[C@H](Cc3ccccc3)C(=O)O)cc2)cc1 [Example 1a-1-86] | 6.46 |
| CC(C)[C@@H](NS(=O)(=O)c1ccc(C#Cc2ccc(F)cc2)cc1)C(=O)O [Example 1a-2-19] | 6.69 |
| O=C(Nc1ccc(S(=O)(=O)N[C@H](Cc2c[nH]c3ccccc23)C(=O)O)cc1)c1ccc(Br)cc1 [Example 183] | 8.57 |
| COc1ccc(C#Cc2ccc(S(=O)(=O)N[C@@H](C(=O)O)C(C)(C)C)cc2)cc1 [Example 1a-2-20] | 5.47 |
| Cc1ccc(C#Cc2ccc(S(=O)(=O)N[C@H](Cc3ccccc3)C(=O)O)s2)cc1 [Example 1a-2-37] | 7.04 |
| CCC(C)[C@@H](NS(=O)(=O)c1ccc(C#Cc2ccc(OC)cc2)cc1)C(=O)O (some centres unmarked) [Example 1a-2-21] | 5.43 |
| Cc1ccc(-c2ccc(S(=O)(=O)N[C@@H](C(=O)O)C(C)C)s2)cc1 [Example 1a-3-7] | 6.64 |
| O=C(NO)[C@@H](Cc1ccccc1)NS(=O)(=O)c1ccc(N=Nc2ccccc2)cc1 [Example 1b-1-85] | 7.89 |
| C#Cc1ccc(C#Cc2ccc(S(=O)(=O)N[C@H](Cc3c[nH]c4ccccc34)C(=O)O)cc2)cc1 [Example 1a-2-11] | 7.32 |
| COc1ccc(-c2ccc(S(=O)(=O)N[C@H](Cc3ccccc3)C(=O)O)s2)cc1 [1a-3-10] | 8.08 |
| CSc1ccc(-c2ccc(S(=O)(=O)N[C@@H](C(=O)O)C(C)C)s2)cc1 [Example 1a-3-9] | 7.85 |
| O=C(O)[C@@H](Cc1c[nH]c2ccccc12)NS(=O)(=O)c1ccc(C#Cc2ccccc2)cc1 [Example 1a-2-2] | 6.63 |
